# From patent US20140323952A1, “METHODS FOR PROSTATECTOMY” (priority 2011, published 2014)
# Assays:
# [1] = system: men undergoing robotic radical prostatectomy; experiment: Prospective outcome study of robotic radical prostatectomy with phenylephrine infiltration for hemostasis (57 men, IIEF >= 20): continence by pad use, potency by intercourse; type: in vivo, human
# Experimental: (§1) A group of men who were in need of a prostatectomy were tested. All men undergoing robotic radical prostatectomy after June 2009 were given informed consent regard to and asked to participate in a prospective study of outcomes of robotic radical prostatectomy. Baseline data were obtained preoperatively with regard to sexual and urinary function using self-administered International Index of Erectile Function and International Prostate Symptom Score Questionnaires. Additionally, patients were asked if they had experienced intercourse, urinary incontinence or pad used in the 4 weeks prior to the initial screening visit. Only patients with a pre-operative score on the International Index of Erectile Function of greater than or equal to 20 were included in the post-operative analysis of continence and potency.
# (§2) A standard method of prostatectomy was used except that hemostasis was achieved by the infiltration of phenylephrine at a concentration of 100 micrograms per milliliter into the anterior and antero lateral bladder neck (1000 micrograms), right lateral bladder neck (1,000 micrograms), left lateral bladder neck (1,000 micrograms), right prostatic vascular pedicle and neurovascular margin (1,000 micrograms) and left prostatic vascular pedicles and neurovascular margin (1,000 micrograms) for a total of 5,000 micrograms of the agent. Sharp cold dissection was then performed with either the Snap Blade or the Shears with rare spot use of bipolar cautery. Monopolar cautery was not used during any part of the procedure.
# Continence was assessed in the post-operative period by pad use with one pad per day or less being considered as “socially continent.” The use of zero pads per day was considered “absolutely continent” Or “complete continence.” The time necessary to achieve each of these milestones was recorded individually for each subject. The end point of sexual recovery was intercourse, and the experience of intercourse was monitored at each post-operative visit. Intercourse was experienced by 21% of men within the 4 weeks prior to initial evaluation. […] Additional follow-up evaluations were done at 8 and 12 weeks post-operative time points. […] Intercourse at the 9 month interval (39 weeks) was established by phone interview in those men not reporting intercourse at the 6 month visit, and for whom interim follow up was not scheduled.
# All patients in this study were given informed consent for participation in a prospective study of outcomes of robotic radical prostatectomy. No patients withdrew. Fifty seven (57) men among all patients operated had IIEF scores of 20 or greater. Two patients refused or were lost to follow-up for other reasons. All observations were collected in a prospective fashion and maintained in our IRB approved database of patients having robotic surgery.
# Analysis of differences in means was performed by Student's t-test. The differences in proportions were calculated by the Chi-squared test. The probability of return of social continence, absolute continence, and the probability of intercourse was calculated by the Kaplan Meier function.
# [2] = system: men undergoing robotic radical prostatectomy; experiment: Ongoing study of the 57 subjects plus 23 new subjects (80 men): intercourse and pad use after prostatectomy with phenylephrine infiltration; type: in vivo, human; settings: for Intercourse: reflects use of phosphodiesterase inhibitors
# Experimental: as §1, §2
# Continence was assessed in the post-operative period by pad use with one pad per day or less being considered as “socially continent.” The use of zero pads per day was considered “absolutely continent” Or “complete continence.” The time necessary to achieve each of these milestones was recorded individually for each subject. The end point of sexual recovery was intercourse, and the experience of intercourse was monitored at each post-operative visit. Intercourse was experienced by 21% of men within the 4 weeks prior to initial evaluation. It is noteworthy that two (2) weeks lapsed between the surgery and the removal of the urinary catheter, thus the initial evaluation of sexual function occurred 2 weeks following removal of the catheter, or 4 weeks following surgery. Additional follow-up evaluations were done at 8 and 12 weeks post-operative time points. […] Intercourse at the 9 month interval (39 weeks) was established by phone interview in those men not reporting intercourse at the 6 month visit, and for whom interim follow up was not scheduled.
# An ongoing study of the 57 subjects described above as well as an additional 23 new subjects was also performed.
# [3] = 2 weeks postoperative, 57 patients
# [4] = 4 weeks postoperative, 57 patients
# [5] = 6 weeks postoperative, 57 patients
# [6] = 8 weeks postoperative, 56 patients
# [7] = 12 weeks postoperative, 55 patients
# [8] = 26 weeks postoperative, 46 patients
# [9] = 39 weeks postoperative, 38 patients
# [10] = 52 weeks postoperative, 37 patients
# [11] = 78 weeks postoperative, 23 patients
# [12] = 12 weeks (3 mos) post op, 77 patients
# [13] = 26 weeks (6 mos) post op, 71 patients
# [14] = 39 weeks (9 mos) post op, 63 patients
# [15] = 52 weeks (12 mos) post op, 53 patients
# [16] = 78 weeks (1.5 yrs) post op, 30 patients
# [17] = 104 weeks (2.0 yrs) post op, 14 patients
# [18] = within about 52 weeks following surgery, FIG. 4
smiles,measurement,setting,value
CNC[C@H](O)c1cccc(O)c1 [phenylephrine],Complete Continence Number (%),[1]; [3],10 (18%) Number (%)
same,Potency Number (%),[1]; [3],7 (12%) Number (%)
same,Social Continence Number (%),"[1]; 2 weeks postoperative, 57 patients, 5,000 micrograms phenylephrine infiltrated",20 (35%) Number (%)
same,Complete Continence Number (%),[1]; [4],17 (30%) Number (%)
same,Potency Number (%),[1]; [4],12 (21%) Number (%)
same,Social Continence Number (%),[1]; [4],31 (54%) Number (%)
same,Complete Continence Number (%),[1]; [5],16 (28%) Number (%)
same,Potency Number (%),[1]; [5],14 (25%) Number (%)
same,Social Continence Number (%),[1]; [5],32 (56%) Number (%)
same,Complete Continence Number (%),[1]; [6],17 (30%) Number (%)
same,Potency Number (%),[1]; [6],15 (27%) Number (%)
same,Social Continence Number (%),[1]; [6],33 (58%) Number (%)
same,Complete Continence Number (%),[1]; [7],20 (36%) Number (%)
same,Potency Number (%),[1]; [7],23 (42%) Number (%)
same,Social Continence Number (%),[1]; [7],40 (73%) Number (%)
same,Complete Continence Number (%),[1]; [8],26 (57%) Number (%)
same,Potency Number (%),[1]; [8],24 (52%) Number (%)
same,Social Continence Number (%),[1]; [8],40 (87%) Number (%)
same,Complete Continence Number (%),[1]; [9],24 (63%) Number (%)
same,Potency Number (%),[1]; [9],20 (53%) Number (%)
same,Social Continence Number (%),[1]; [9],34 (89%) Number (%)
same,subjects at risk with social continence,"[1]; 52-week mark, Kaplan Meier plot FIG. 1",100%
same,Complete Continence Number (%),[1]; [10],35 (95%) Number (%)
same,Potency Number (%),[1]; [10],34 (92%) Number (%)
same,Social Continence Number (%),[1]; [10],37 (100%) Number (%)
same,subjects with complete continence,"[1]; 78-week time point, Kaplan Meier plot FIG. 2",100%
same,potency following surgery,"[1]; 78-week time point, Kaplan Meier plot FIG. 3",Complete potency was achieved
same,Complete Continence Number (%),[1]; [11],23 (100%) Number (%)
same,Potency Number (%),[1]; [11],23 (100%) Number (%)
same,Social Continence Number (%),[1]; [11],23 (100%) Number (%)
same,Potency Number (%),"[1]; week 0 (pre-surgical baseline), 57 patients, intercourse",51 (89%) Number (%)
same,Social Continence Number (%),"[1]; week 0 (pre-surgical baseline), 57 patients, one pad per day or less",57 (100%) Number (%)
same,Complete Continence Number (%),"[1]; week 0 (pre-surgical baseline), 57 patients, zero pads per day",57 (100%) Number (%)
same,men who experienced intercourse,[1]; within the 4 weeks prior to initial evaluation (4 weeks following surgery),21%
same,One or less pad per 24 hours,"[2]; 2 weeks post op, 79 patients",32%
same,Zero Pads per 24 hours,"[2]; 2 weeks post op, 79 patients",18%
same,Intercourse,"[2]; 2 weeks post op, 79 patients",10%
same,One or less pad per 24 hours,"[2]; 4 weeks post op, 78 patients",49%
same,Zero Pads per 24 hours,"[2]; 4 weeks post op, 78 patients",28%
same,Intercourse,"[2]; 4 weeks post op, 78 patients",19%
same,One or less pad per 24 hours,"[2]; 6 weeks post op, 77 patients",58%
same,Zero Pads per 24 hours,"[2]; 6 weeks post op, 77 patients",27%
same,Intercourse,"[2]; 6 weeks post op, 77 patients",25%
same,One or less pad per 24 hours,"[2]; 8 weeks post op, 77 patients",60%
same,Zero Pads per 24 hours,"[2]; 8 weeks post op, 77 patients",28%
same,Intercourse,"[2]; 8 weeks post op, 77 patients",27%
same,One or less pad per 24 hours,[2]; [12],73%
same,Zero Pads per 24 hours,[2]; [12],36%
same,Intercourse,[2]; [12],42%
same,One or less pad per 24 hours,[2]; [13],89%
same,Zero Pads per 24 hours,[2]; [13],52%
same,Intercourse,[2]; [13],58%
same,One or less pad per 24 hours,[2]; [14],92%
same,Zero Pads per 24 hours,[2]; [14],65%
same,Intercourse,[2]; [14],67%
same,One or less pad per 24 hours,[2]; [15],100%
same,Zero Pads per 24 hours,[2]; [15],85%
same,Intercourse,[2]; [15],83%
same,One or less pad per 24 hours,[2]; [16],100%
same,Zero Pads per 24 hours,[2]; [16],83%
same,Intercourse,[2]; [16],77%
same,One or less pad per 24 hours,[2]; [17],100%
same,Zero Pads per 24 hours,[2]; [17],93%
same,Intercourse,[2]; [17],93%
same,time within which social continence was achieved for all subjects,"[2]; following surgery, FIG. 4",≤ 52 weeks
same,One or less pad per 24 hours,"[2]; week 0 (Pre Op), 80 patients",100%
same,Zero Pads per 24 hours,"[2]; week 0 (Pre Op), 80 patients",99%
same,Intercourse,"[2]; week 0 (Pre Op), 80 patients",90%
same,subjects achieving absolute continence,[2]; [18],more than 80%
same,subjects achieving sexual function (intercourse),[2]; [18],about 80%
